These results are taken from US20260042764A1, “COMPOSITIONS AND METHODS FOR INHIBITION OF KRAS” (TheRas, Inc., priority 2022, published 2026).

Assay [1] deals with T1, Avi-KRAS G12V (1-169) GppNHp/RAF1 RBD-3xFLAG (52-151) (Homo sapiens, UniProt P01116, G12V).
T1 construct: Avi-KRAS G12V (1-169)
Description: Raf1-KRAS G12V-GppNHP disruption HTRF assay (Biological Example 1). Type of assay: binding. As to conditions: KRAS G12V, GppNHp-loaded; class symbols. The procedure, abridged:
(§1)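 Protein mix, 1 h RT, 700 rpm; reagent mix, 1 h RT, 700 rpm; HTRF read. Buffer Tris pH 7.5/NaCl/MgCl2/BSA/Tween, 10% DMSO. Output % activity, DMSO = 100%.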
For orientation: Time-resolved FRET reads energy transfer from a long-lived donor to a nearby acceptor.

Another assay relates to GP2d cells (KRAS G12D). As to the kind of experiment: Cell-based pERK HTRF assay in GP2d cell (Biological Example 2). Conditions: GP2d, GP2d (KRAS G12D) cells, pERK HTRF; class symbols. In a few lines: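 Treatment with test compounds lasted one hour in DMEM containing 10% FBS, with DMSO held at 0.25%. Dilution series: 9 points, half-log spacing, highest 1 μM or 100 nM. Lysates were incubated 4–24 h at room temperature with antibody mix, then HTRF was read at 320 nm excitation.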

Assay [2] deals with T2, Avi-KRAS G12D (1-169) GppNHp/RAF1 RBD-3xFLAG (52-151) (Homo sapiens, UniProt P01116, G12D).
T2 construct: Avi-KRAS G12D (1-169)
T2 sequence (P01116 1-169 isoform P01116-2 G12D): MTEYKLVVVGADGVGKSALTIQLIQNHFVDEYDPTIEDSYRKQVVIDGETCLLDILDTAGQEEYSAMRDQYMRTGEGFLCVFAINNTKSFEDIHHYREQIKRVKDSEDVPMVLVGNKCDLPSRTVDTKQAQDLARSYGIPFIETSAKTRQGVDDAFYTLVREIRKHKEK
Description: Raf1-KRAS G12D-GppNHP disruption HTRF assay (Biological Example 1). Type of assay: binding. As to conditions: KRAS G12D, GppNHp-loaded; class symbols. In a few lines: as §1

Assay [3] deals with T3, Avi-KRAS G12R (1-169) GppNHp/RAF1 RBD-3xFLAG (52-151) (Homo sapiens, UniProt P01116, G12R).
T3 construct: Avi-KRAS G12R (1-169)
T3 sequence (P01116 1-169 isoform P01116-2 G12R): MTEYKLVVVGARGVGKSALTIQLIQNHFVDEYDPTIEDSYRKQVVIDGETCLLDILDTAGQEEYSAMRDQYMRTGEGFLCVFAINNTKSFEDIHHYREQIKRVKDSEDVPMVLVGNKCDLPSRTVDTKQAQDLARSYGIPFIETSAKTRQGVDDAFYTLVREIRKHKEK
Description: Raf1-KRAS G12R-GppNHP disruption HTRF assay (Biological Example 1). Conditions: KRAS G12R, GppNHp-loaded; class symbols. Type of assay: binding. The procedure, abridged:
as §1

The test system of the next assay is SW620 cells (KRAS G12V). Description: Cell-based pERK HTRF assay in SW620 cell (Biological Example 4). Conditions: Homo sapiens, SW-620, SW620 (KRAS G12V) cells, pERK HTRF; class symbols. In a few lines:
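SW620 seeded in RPMI/10% FBS, next day dosed 4 h (top 1 μM, half-log, 9 pts, 0.25% DMSO). Lysed, pERK by d2/Eu cryptate HTRF, 4–24 h RT, 615 nm read.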

For assay [4], the target named is T4, Avi-KRAS WT (1-169) GppNHp/RAF1 RBD-3xFLAG (52-151) (Homo sapiens, UniProt P01116).
T4 construct: Avi-KRAS WT (1-169)
T4 sequence (P01116 1-169 isoform P01116-2): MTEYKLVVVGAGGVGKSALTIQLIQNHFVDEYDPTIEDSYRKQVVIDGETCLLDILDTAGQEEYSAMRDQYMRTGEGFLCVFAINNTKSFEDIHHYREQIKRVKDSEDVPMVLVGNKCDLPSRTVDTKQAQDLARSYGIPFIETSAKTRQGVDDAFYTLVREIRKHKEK
As to the kind of experiment: Raf1-KRAS WT-GppNHP disruption HTRF assay (Biological Example 1). Type of assay: binding. Conditions: KRAS WT, GppNHp-loaded; class symbols. The procedure, abridged: as §1

T1 sequence (P01116 1-169 isoform P01116-2 G12V): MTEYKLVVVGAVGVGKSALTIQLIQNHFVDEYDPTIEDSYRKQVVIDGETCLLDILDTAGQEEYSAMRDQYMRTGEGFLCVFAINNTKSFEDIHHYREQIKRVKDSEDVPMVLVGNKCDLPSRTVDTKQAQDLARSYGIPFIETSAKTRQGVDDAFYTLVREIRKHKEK

For the compound `CCN(c1nc(OC[C@@]23CCCN2C[C@H](F)C3)nc2c(F)c(-c3ccc(F)c4sc(N)c(C#N)c34)c(C(F)(F)F)cc12)[C@H]1CCN(C(=O)N(C)C)[C@H]1C` (atropisomer, axis not shown) [Compound 798], the concentration for half-maximal inhibition (IC50) in assay [1] lay in the range of 1000 to 10000 nM; in the assay with GP2d cells (KRAS G12D), 100 to 1000 nM; in assay [2], 100 to 1000 nM; in assay [3] it was 1000 to 10000 nM; with SW620 cells (KRAS G12V), 100 to 1000 nM; in assay [4], 1000 to 10000 nM.
As to `CCN(c1nc(OC[C@@]23CCCN2C[C@H](F)C3)nc2c(F)c(-c3ccc(F)c4sc(N)c(C#N)c34)c(C(F)(F)F)cc12)[C@H]1CCN(C(=O)OC)[C@H]1C` (atropisomer, axis not shown) [Compound 799], the 50% inhibitory concentration (IC50) in assay [1] fell in the range of 1000 to 10000 nM; with GP2d cells (KRAS G12D), 100 to 1000 nM; in assay [2] it was 1000 to 10000 nM; in assay [3] it was 1000 to 10000 nM; in the assay on SW620 cells (KRAS G12V), 100 to 1000 nM; in assay [4] it was 100 to 1000 nM.
`[2H][C@]1(N(CC)c2nc(OC[C@@]34CCCN3C[C@H](F)C4)nc3c(F)c(-c4ccc(F)c5sc(N)c(C#N)c45)c(C(F)(F)F)cc23)CCN(C(=O)OC)C1` (atropisomer, axis not shown) [Compound 800]: the half-maximal inhibitory concentration (IC50) (in assay [1]; in the assay with GP2d cells (KRAS G12D); in assay [2]; in assay [3]; in the assay with SW620 cells (KRAS G12V); in assay [4]) was under 100 nM throughout.
For `COC1CN(C(=O)N2CC[C@H](N(c3nc(OC[C@@]45CCCN4C[C@H](F)C5)nc4c(F)c(-c5ccc(F)c6sc(N)c(C#N)c56)c(C(F)(F)F)cc34)C3CC3)C2)C1` (atropisomer, axis not shown) [Compound 801], the concentration for half-maximal inhibition (IC50) in assay [1] is 100 to 1000 nM; with GP2d cells (KRAS G12D), under 100 nM; in assay [2], under 100 nM; in assay [3], 100 to 1000 nM; in the assay on SW620 cells (KRAS G12V), under 100 nM; in assay [4] it was 100 to 1000 nM.
`CCN(c1nc(OC[C@@]23CCCN2C[C@H](F)C3)nc2c(F)c(-c3ccc(F)c4sc(N)c(C#N)c34)c(C(F)(F)F)cc12)[C@H]1CCN(C(=O)OC2CCC2)C1` (atropisomer, axis not shown) [Compound 802]: the 50% inhibitory concentration (IC50) in assay [1] was under 100 nM; with GP2d cells (KRAS G12D), under 100 nM; in assay [2] it was under 100 nM; in assay [3] it was under 100 nM; in the assay on SW620 cells (KRAS G12V), under 100 nM; in assay [4] it was 100 to 1000 nM.
As for `CCN(c1nc(OC[C@@]23CCCN2C[C@H](F)C3)nc2c(F)c(-c3ccc(F)c4sc(N)c(C#N)c34)c(C(F)(F)F)cc12)[C@H]1CCN(C(=O)c2ncc(C)o2)C1` (atropisomer, axis not shown) [Compound 803], the IC50 in assay [1] is 100 to 1000 nM; with GP2d cells (KRAS G12D), under 100 nM; in assay [2], under 100 nM; in assay [3], 100 to 1000 nM; with SW620 cells (KRAS G12V), under 100 nM; in assay [4] it was 100 to 1000 nM.
In the case of `CCN(c1nc(OC[C@@]23CCCN2C[C@H](F)C3)nc2c(F)c(-c3ccc(F)c4sc(N)c(C#N)c34)c(C(F)(F)F)cc12)[C@H]1CCN(C(=O)[C@H]2CCO2)[C@@H]1C` (atropisomer, axis not shown) [Compound 805], the IC50 (in assay [1]; in the assay on GP2d cells (KRAS G12D); in assay [2]; in assay [3]; with SW620 cells (KRAS G12V); in assay [4]) was under 100 nM throughout.
As for `CCN(c1nc(OC[C@@]23CCCN2C[C@H](F)C3)nc2c(F)c(-c3ccc(F)c4sc(N)c(C#N)c34)c(C(F)(F)F)cc12)[C@H]1CCN(C(=O)[C@@H](C)OC)[C@@H]1C` (atropisomer, axis not shown) [Compound 806], the IC50 was 100 to 1000 nM in assay [1]; under 100 nM in the assay on GP2d cells (KRAS G12D); under 100 nM in assay [2]; under 100 nM in assay [3]; under 100 nM with SW620 cells (KRAS G12V); under 100 nM in assay [4].
As to `CCN(c1nc(OC[C@@]23CCCN2C[C@H](F)C3)nc2c(F)c(-c3ccc(F)c4sc(N)c(C#N)c34)c(C(F)(F)F)cc12)[C@@H]1CCN(C(=O)[C@@H](C)OC)[C@@H]1C` (atropisomer, axis not shown) [Compound 807], the half-inhibitory concentration (IC50) (in assay [1]; in the assay with GP2d cells (KRAS G12D); in assay [2]; in assay [3]; in the assay on SW620 cells (KRAS G12V); in assay [4]) was under 100 nM each time.
In the case of `CCN(c1nc(OC[C@@]23CCCN2C[C@H](F)C3)nc2c(F)c(-c3ccc(F)c4sc(N)c(C#N)c34)c(C(F)(F)F)cc12)[C@@H]1CCN(C(=O)[C@@H]2CC2(F)F)[C@@H]1C` (atropisomer, axis not shown) [Compound 808], the IC50 (in assay [1]; with GP2d cells (KRAS G12D); in assay [2]; in assay [3]; in the assay on SW620 cells (KRAS G12V); in assay [4]) was under 100 nM in each case.
On to `CCN(c1nc(OC[C@@]23CCCN2C[C@H](F)C3)nc2c(F)c(-c3ccc(F)c4sc(N)c(C#N)c34)c(C(F)(F)F)cc12)[C@H]1CCN(C(=O)OC2COC2)[C@@H]1C` (atropisomer, axis not shown) [Compound 809], for which the concentration for half-maximal inhibition (IC50) (in assay [1]; in the assay with GP2d cells (KRAS G12D); in assay [2]; in assay [3]; with SW620 cells (KRAS G12V); in assay [4]) was under 100 nM throughout.
In the case of `CCN(c1nc(OC[C@@]23CCCN2C[C@H](F)C3)nc2c(F)c(-c3ccc(F)c4sc(N)c(C#N)c34)c(C(F)(F)F)cc12)[C@H]1CCN(C(=O)O[C@H]2CCOC2)[C@@H]1C` (atropisomer, axis not shown) [Compound 810], the half-inhibitory concentration (IC50) (in assay [1]; in the assay on GP2d cells (KRAS G12D); in assay [2]; in assay [3]; in the assay on SW620 cells (KRAS G12V); in assay [4]) was under 100 nM throughout.
In the case of `CO[C@@H](C)C(=O)N1CC[C@H](N(c2nc(OC[C@@]34CCCN3C[C@H](F)C4)nc3c(F)c(-c4ccc(F)c5sc(N)c(C#N)c45)c(C(F)(F)F)cc23)C2CC2)C1` (atropisomer, axis not shown) [Compound 811], the concentration for half-maximal inhibition (IC50) is 100 to 1000 nM in assay [1]; under 100 nM in the assay with GP2d cells (KRAS G12D); under 100 nM in assay [2]; 100 to 1000 nM in assay [3]; under 100 nM in the assay with SW620 cells (KRAS G12V); 100 to 1000 nM in assay [4].
Consider `N#Cc1c(N)sc2c(F)ccc(-c3c(C(F)(F)F)cc4c(N(C5CC5)[C@H]5CCN(C(=O)[C@H]6CCO6)C5)nc(OC[C@@]56CCCN5C[C@H](F)C6)nc4c3F)c12` (atropisomer, axis not shown) [Compound 812], for which the half-inhibitory concentration (IC50) in assay [1] was 100 to 1000 nM; in the assay with GP2d cells (KRAS G12D), under 100 nM; in assay [2], under 100 nM; in assay [3], 100 to 1000 nM; in the assay on SW620 cells (KRAS G12V) it was under 100 nM; in assay [4], 100 to 1000 nM.
For `N#Cc1c(N)sc2c(F)ccc(-c3c(C(F)(F)F)cc4c(N(C5CC5)[C@H]5CCN(C(=O)N6CC(F)C6)C5)nc(OC[C@@]56CCCN5C[C@H](F)C6)nc4c3F)c12` (atropisomer, axis not shown) [Compound 813], the IC50 in assay [1] was 100 to 1000 nM; in the assay on GP2d cells (KRAS G12D), under 100 nM; in assay [2], under 100 nM; in assay [3], 100 to 1000 nM; in the assay on SW620 cells (KRAS G12V), under 100 nM; in assay [4], 100 to 1000 nM.
As for `CC(C)C(=O)N1CC[C@H](N(CCF)c2nc(OC[C@@]34CCCN3C[C@H](F)C4)nc3c(F)c(-c4ccc(F)c5sc(N)c(C#N)c45)c(C(F)(F)F)cc23)C1` (atropisomer, axis not shown) [Compound 814], the half-maximal inhibitory concentration (IC50) in assay [1] is 100 to 1000 nM; in the assay on GP2d cells (KRAS G12D), under 100 nM; in assay [2], under 100 nM; in assay [3], under 100 nM; with SW620 cells (KRAS G12V), under 100 nM; in assay [4] it was 100 to 1000 nM.
In the case of `CCN(c1nc(OC[C@@]23CCCN2C[C@H](F)C3)nc2c(F)c(-c3ccc(F)c4sc(N)c(C#N)c34)c(C(F)(F)F)cc12)[C@H]1CC(=O)N(CCOC)C1` (atropisomer, axis not shown) [Compound 815], the half-maximal inhibitory concentration (IC50) (in assay [1]; in the assay with GP2d cells (KRAS G12D); in assay [2]; in assay [3]; in the assay on SW620 cells (KRAS G12V); in assay [4]) was under 100 nM throughout.

What is called IC50 is the concentration at which inhibition is half-maximal.
